Assay results: patent US6737383B1, “Herbicidal oxadiazolidines” (priority 1999, dated 2004)

Key:
blackgrass [1] = experiment: Test B pre/postemergence blackgrass; type: in vivo, Alopecurus myosuroides
How it was run: (§1)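 Herbicidal effect was estimated by eye on a ten-point control scale after plants spent twelve to sixteen days in a greenhouse following soil or foliar treatment. Foliar sprays targeted plants at one to four leaves; all doses were formulated in a non-phytotoxic solvent with surfactant.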

giant foxtail = experiment: Test B pre/postemergence giant foxtail; type: in vivo, Setaria faberii
How it was run: as §1

wheat = experiment: Test B pre/postemergence wheat; type: in vivo, Triticum aestivum
How it was run: as §1

purple nutsedge = experiment: Test B pre/postemergence purple nutsedge; type: in vivo, Cyperus rotundus
How it was run: as §1

winter wheat [2] = experiment: Test E winter wheat; type: in vivo, Triticum aestivum; details: Postemergence
Procedure: […] All plant species were grown using normal greenhouse practices. Crop and weed species include annual bluegrass (Poa annua), blackgrass (Alopecurus myosuroides), black nightshade (Solanum nigra), chickweed (Stellaria media), common poppy (Papaver rhoeas), deadnettle (Lamium amplexicaule), downy brome (Bromus tectorum), field violet (Viola arvensis), galium (Galium aparine), green foxtail (Setaria viridis), Italian ryegrass (Lolium multiflorum), jointed goatgrass (Aegilops cylindrica), kochia (Kochia scoparia), lambsquarters (Chenopodium album), littleseed canarygrass (Phalaris minor), rape (Brassica napus), redroot pigweed (Amaranthus retroflexus), Russian thistle (Salsola kali), scentless chamomile (Matricaria inodora), spring barley (Hordeum vulgare), sugar beet (Beta vulgaris), sunflower (Helianthus annuus), ivyleaf speedwell (Veronica hederaefolia), spring wheat (Triticum aestivum), winter wheat (Triticum aestivum), wild buckwheat (Polygonum convolvulus), wild mustard (Sinapis arvensis), wild oat (Avena fatua), windgrass (Apera spica-venti) and winter barley (Hordeum vulgare).
Treated plants and untreated controls were maintained in a greenhouse for approximately 21 to 28 days, after which all treated plants were compared to untreated controls and visually evaluated. […] A dash response (-) means no test result.

blackgrass [3] = experiment: Test E blackgrass; type: in vivo, Alopecurus myosuroides; details: Preemergence
green foxtail = experiment: Test E green foxtail; type: in vivo, Setaria viridis; details: Preemergence
Italian ryegrass = experiment: Test E Italian ryegrass; type: in vivo, Lolium multiflorum; details: Preemergence
winter wheat [4] = experiment: Test E winter wheat; type: in vivo, Triticum aestivum; details: Preemergence
wild oat = experiment: Test E wild oat; type: in vivo, Avena fatua; details: Preemergence
winter barley = experiment: Test E winter barley; type: in vivo, Hordeum vulgare; details: Preemergence
[5] = Preemergence, Rate 62 g/ha, scale of 0 to 10 where 0 is no effect and 10 is complete control
[6] = Preemergence, Rate 500 g/ha, scale of 0 to 10 where 0 is no effect and 10 is complete control
[7] = Rate 62 g/ha, Postemergence, scale of 0 to 10 where 0 is no effect and 10 is complete control
[8] = Rate 125 g/ha, Postemergence, scale of 0 to 10 where 0 is no effect and 10 is complete control
[9] = Rate 125 g/ha, Preemergence, scale of 0 to 10 where 0 is no effect and 10 is complete control
[10] = Rate 250 g/ha, Postemergence, scale of 0 to 10 where 0 is no effect and 10 is complete control
[11] = Rate 500 g/ha, Postemergence, scale 0 to 10, 0 no effect, 10 complete control
[12] = Preemergence, Rate 250 g/ha, scale of 0 to 10 where 0 is no effect and 10 is complete control
[13] = Rate 500 g/ha, 0 to 100 scale where 0 is no effect and 100 is complete control
[14] = Rate 1000 g/ha, 0 to 100 scale, 0 no effect, 100 complete control
[15] = Rate 125 g/ha, Postemergence, scale 0 to 10
[16] = Postemergence, Rate 62 g/ha, scale 0 to 10, 0 is no effect, 10 is complete control
[17] = Postemergence, Rate 125 g/ha, scale of 0 to 10 where 0 is no effect and 10 is complete control
[18] = Preemergence, Rate 125 g/ha, scale of 0 to 10 where 0 is no effect and 10 is complete control
[19] = Preemergence, Rate 250 g/ha, scale 0 (no effect) to 10 (complete control)
[20] = Rate 62 g/ha, Preemergence, scale 0 to 10
[21] = Rate 250 g/ha, Postemergence, scale 0 to 10, 0 is no effect, 10 is complete control
[22] = Rate 500 g/ha, Postemergence, scale 0 to 10, 0 is no effect, 10 is complete control
[23] = Rate 500 g/ha, Preemergence, scale 0 to 10 (0 no effect, 10 complete control)
[24] = Postemergence, Rate 250 g/ha, scale 0 to 10, 0 no effect, 10 complete control
[25] = Preemergence, Rate 62 g/ha, scale 0 to 10, 0 is no effect, 10 is complete control
[26] = Preemergence, Rate 125 g/ha, scale 0 to 10 (0 no effect, 10 complete control)
[27] = Preemergence, Rate 500 g/ha, scale 0 (no effect) to 10 (complete control)
[28] = Rate 125 g/ha, Postemergence, scale 0 to 10, 0 no effect, 10 complete control
[29] = Rate 500 g/ha, Postemergence, 0 to 10 scale (0 no effect, 10 complete control)

Cc1cccc(C)c1-n1c(=O)on(C(=O)N(C(C)C)C2C=CCCC2)c1=O (stereo not shown) [Compound 273]
Blackgrass plant response rating (blackgrass [1]; [5]): 0
Plant response rating, Blackgrass (blackgrass [1]; [6]): 0
Blackgrass plant response rating (blackgrass [1]; [7]): 0
Blackgrass plant response rating (blackgrass [1]; [8]): 1
Blackgrass plant response rating (blackgrass [1]; [9]): 0
Plant response rating, Blackgrass (blackgrass [1]; [10]): 2
Blackgrass plant response rating (blackgrass [1]; [11]): 4
Giant foxtail plant response rating (giant foxtail; [5]): 7
Giant foxtail plant response rating (giant foxtail; [12]): 8
Plant response rating, Giant foxtail (giant foxtail; [6]): 9
Giant foxtail plant response rating (giant foxtail; [8]): 0
Giant foxtail plant response rating (giant foxtail; [9]): 8
Plant response rating, Giant foxtail (giant foxtail; [10]): 0
Giant foxtail plant response rating (giant foxtail; [11]): 2
Wheat plant response rating (wheat; [5]): 0
Wheat plant response rating (wheat; [12]): 0
Plant response rating, Wheat (wheat; [6]): 0
Wheat plant response rating (wheat; [8]): 0
Wheat plant response rating (wheat; [9]): 0
Plant response rating, Wheat (wheat; [10]): 0
Wheat plant response rating (wheat; [11]): 0
Nutsedge plant response rating (purple nutsedge; [12]): 0
Plant response rating, Nutsedge (purple nutsedge; [6]): 0
Nutsedge plant response rating (purple nutsedge; [8]): 0
Plant response rating, Nutsedge (purple nutsedge; [10]): 0
Nutsedge plant response rating (purple nutsedge; [11]): 0
Plant response rating, Wheat (winter) (winter wheat [2]; Rate 1000 g/ha, 0 to 100 scale where 0 is no effect and 100 is complete control): 60
Wheat (winter) plant response rating (winter wheat [2]; Rate 250 g/ha, 0 to 100 scale where 0 is no effect and 100 is complete control): 30
Plant response rating, Wheat (winter) (winter wheat [2]; Rate 500 g/ha, 0 to 100 scale, 0 is no effect, 100 is complete control): 50
Blackgrass plant response rating (0 to 100 scale) (blackgrass [3]; Rate 250 g/ha): 55
Plant response rating, Blackgrass (blackgrass [3]; [13]): 80
Plant response rating, Blackgrass (blackgrass [3]; [14]): 100
Green foxtail plant response rating (0 to 100 scale) (green foxtail; Rate 250 g/ha): 20
Plant response rating, Green foxtail (green foxtail; [13]): 30
Plant response rating, Green foxtail (green foxtail; [14]): 60
I. Ryegrass plant response rating (0 to 100 scale) (Italian ryegrass; Rate 250 g/ha): 30
Plant response rating, I. Ryegrass (Italian ryegrass; [13]): 55
Plant response rating, I. Ryegrass (Italian ryegrass; [14]): 60
Wheat (winter) plant response rating (0 to 100 scale) (winter wheat [4]; Rate 250 g/ha): 50
Plant response rating, Wheat (winter) (winter wheat [4]; [13]): 60
Plant response rating, Wheat (winter) (winter wheat [4]; [14]): 60
Wild oat plant response rating (0 to 100 scale) (wild oat; Rate 250 g/ha): 80
Plant response rating, Wild oat (wild oat; [13]): 70
Plant response rating, Wild oat (wild oat; [14]): 80
Barley (winter) plant response rating (0 to 100 scale) (winter barley; Rate 250 g/ha): 70
Plant response rating, Barley (winter) (winter barley; [13]): 65
Plant response rating, Barley (winter) (winter barley; [14]): 80

CCCCc1ccc(N(C(=O)n2oc(=O)n(-c3ccccc3C)c2=O)C(C)C)cc1 [Compound 229]
Blackgrass plant response rating (blackgrass [1]; [5]): 0
Blackgrass plant response rating (blackgrass [1]; [12]): 0
Plant response rating, Blackgrass (blackgrass [1]; [6]): 0
Blackgrass plant response rating (blackgrass [1]; [7]): 0
Blackgrass plant response rating (blackgrass [1]; [15]): 0
Blackgrass plant response rating (blackgrass [1]; [9]): 0
Plant response rating (0 to 10; 0 is no effect, 10 is complete control), Blackgrass (blackgrass [1]; Rate 250 g/ha, Postemergence): 0
Blackgrass plant response rating (blackgrass [1]; [11]): 0
Giant foxtail plant response rating (giant foxtail; [5]): 0
Giant foxtail plant response rating (giant foxtail; [12]): 0
Plant response rating, Giant foxtail (giant foxtail; [6]): 0
Giant foxtail plant response rating (giant foxtail; [7]): 0
Giant foxtail plant response rating (giant foxtail; [15]): 0
Giant foxtail plant response rating (giant foxtail; [9]): 0
Plant response rating (0 to 10; 0 is no effect, 10 is complete control), Giant foxtail (giant foxtail; Rate 250 g/ha, Postemergence): 0
Giant foxtail plant response rating (giant foxtail; [11]): 0
Wheat plant response rating (wheat; [5]): 0
Wheat plant response rating (wheat; [12]): 0
Plant response rating, Wheat (wheat; [6]): 0
Wheat plant response rating (wheat; [7]): 0
Wheat plant response rating (wheat; [15]): 0
Wheat plant response rating (wheat; [9]): 0
Plant response rating (0 to 10; 0 is no effect, 10 is complete control), Wheat (wheat; Rate 250 g/ha, Postemergence): 0
Wheat plant response rating (wheat; [11]): 0
Nutsedge plant response rating (purple nutsedge; [5]): 0
Nutsedge plant response rating (purple nutsedge; [12]): 0
Plant response rating, Nutsedge (purple nutsedge; [6]): 0
Nutsedge plant response rating (purple nutsedge; [7]): 0
Nutsedge plant response rating (purple nutsedge; [15]): 0
Nutsedge plant response rating (purple nutsedge; [9]): 0
Plant response rating (0 to 10; 0 is no effect, 10 is complete control), Nutsedge (purple nutsedge; Rate 250 g/ha, Postemergence): 0
Nutsedge plant response rating (purple nutsedge; [11]): 0

CC(C)N(C(=O)n1oc(=O)n(CCN(C)C(=O)c2ccccc2)c1=O)c1ccc(F)cc1 [Compound 741]
Plant response rating, Blackgrass (blackgrass [1]; [16]): 0
Blackgrass plant response rating (blackgrass [1]; [17]): 0
Plant response rating, Blackgrass (blackgrass [1]; [18]): 0
Blackgrass plant response rating (blackgrass [1]; [19]): 0
Blackgrass plant response rating (blackgrass [1]; [20]): 0
Blackgrass plant response rating (blackgrass [1]; [21]): 0
Blackgrass plant response rating (blackgrass [1]; [22]): 0
Blackgrass plant response rating (blackgrass [1]; [23]): 0
Plant response rating, Giant foxtail (giant foxtail; [16]): 0
Giant foxtail plant response rating (giant foxtail; [17]): 0
Plant response rating, Giant foxtail (giant foxtail; [18]): 2
Giant foxtail plant response rating (giant foxtail; [19]): 9
Giant foxtail plant response rating (giant foxtail; [20]): 0
Giant foxtail plant response rating (giant foxtail; [21]): 3
Giant foxtail plant response rating (giant foxtail; [22]): 4
Giant foxtail plant response rating (giant foxtail; [23]): 10
Plant response rating, Wheat (wheat; [16]): 0
Wheat plant response rating (wheat; [17]): 0
Plant response rating, Wheat (wheat; [18]): 0
Wheat plant response rating (wheat; [19]): 0
Wheat plant response rating (wheat; [20]): 0
Wheat plant response rating (wheat; [21]): 0
Wheat plant response rating (wheat; [22]): 3
Wheat plant response rating (wheat; [23]): 4
Plant response rating, Nutsedge (purple nutsedge; [16]): 0
Nutsedge plant response rating (purple nutsedge; [17]): 0
Plant response rating, Nutsedge (purple nutsedge; [18]): 0
Nutsedge plant response rating (purple nutsedge; [19]): 0
Nutsedge plant response rating (purple nutsedge; [20]): 0
Nutsedge plant response rating (purple nutsedge; [21]): 0
Nutsedge plant response rating (purple nutsedge; [22]): 0
Nutsedge plant response rating (purple nutsedge; [23]): 0

CCN(CC)C(=O)n1oc(=O)n(-c2cc(Cl)cc(Cl)c2)c1=O [Compound 11]
Blackgrass plant response rating (blackgrass [1]; [16]): 0
Blackgrass plant response rating (blackgrass [1]; [24]): 0
Plant response rating, Blackgrass (blackgrass [1]; [25]): 0
Plant response rating, Blackgrass (blackgrass [1]; [26]): 0
Plant response rating, Blackgrass (blackgrass [1]; [12]): 0
Blackgrass plant response rating (blackgrass [1]; [27]): 0
Blackgrass plant response rating (blackgrass [1]; [28]): 0
Blackgrass plant response rating (blackgrass [1]; [29]): 0
Giant foxtail plant response rating (giant foxtail; [16]): 0
Giant foxtail plant response rating (giant foxtail; [24]): 0
Plant response rating, Giant foxtail (giant foxtail; [25]): 0
Plant response rating, Giant foxtail (giant foxtail; [26]): 0
Plant response rating, Giant foxtail (giant foxtail; [12]): 0
Giant foxtail plant response rating (giant foxtail; [27]): 3
Giant foxtail plant response rating (giant foxtail; [28]): 0
Giant foxtail plant response rating (giant foxtail; [29]): 0
Wheat plant response rating (wheat; [16]): 0
Wheat plant response rating (wheat; [24]): 0
Plant response rating, Wheat (wheat; [25]): 0
Plant response rating, Wheat (wheat; [26]): 0
Plant response rating, Wheat (wheat; [12]): 0
Wheat plant response rating (wheat; [27]): 0
Wheat plant response rating (wheat; [28]): 0
Nutsedge plant response rating (purple nutsedge; [16]): 0
Nutsedge plant response rating (purple nutsedge; [24]): 0
Plant response rating, Nutsedge (purple nutsedge; [25]): 0
Plant response rating, Nutsedge (purple nutsedge; [26]): 0
Plant response rating, Nutsedge (purple nutsedge; [12]): 0
Nutsedge plant response rating (purple nutsedge; [27]): 0
Nutsedge plant response rating (purple nutsedge; [28]): 0
Nutsedge plant response rating (purple nutsedge; [29]): 0
